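Method: 48-hour compound exposure of cells in 96-well plates, five concentrations, linear interpolation of endpoints. The concentration for full growth arrest is given as TGI.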
Assays:
Assay in all cases: NCI tumour cell line growth inhibition, 48 h
CCRF-CEM leukemia = system: CCRF-CEM leukemia
LXFL 529 NSCLC = system: LXFL 529 NSCLC
TK-10 renal = system: TK-10 renal
DMS 273 small cell lung = system: DMS 273 small cell lung
MALME-3M melanoma = system: MALME-3M melanoma
SNB-78 CNS = system: SNB-78 CNS
DMS 114 small cell lung = system: DMS 114 small cell lung
DLD-1 colon = system: DLD-1 colon
HOP-18 NSCLC = system: HOP-18 NSCLC
M19-MEL melanoma = system: M19-MEL melanoma
KM20L2 colon = system: KM20L2 colon
NCI/ADR-RES ovarian = system: NCI/ADR-RES ovarian
P388 leukemia = system: P388 leukemia
XF 498 CNS = system: XF 498 CNS
P388/ADR leukemia = system: P388/ADR leukemia
SN12K1 renal = system: SN12K1 renal
RXF-631 renal = system: RXF-631 renal

| SMILES | TGI (CCRF-CEM leukemia) | TGI (LXFL 529 NSCLC) | TGI (TK-10 renal) | TGI (DMS 273 small cell lung) | TGI (MALME-3M melanoma) | TGI (SNB-78 CNS) | TGI (DMS 114 small cell lung) | TGI (DLD-1 colon) | TGI (HOP-18 NSCLC) | TGI (M19-MEL melanoma) | TGI (KM20L2 colon) | TGI (NCI/ADR-RES ovarian) | TGI (P388 leukemia) | TGI (XF 498 CNS) | TGI (P388/ADR leukemia) | TGI (SN12K1 renal) | TGI (RXF-631 renal) |
| --- | --- | --- | --- | --- | --- | --- | --- | --- | --- | --- | --- | --- | --- | --- | --- | --- | --- |
| Nc1ccccc1Sc1ccc(Cl)cc1 | 46.6 µM | > 100 µM | > 100 µM | 72.5 µM | > 100 µM | 46.6 µM | 59.3 µM | > 100 µM | > 100 µM | 60.7 µM | 42.9 µM |  |  |  |  |  |  |
| CC(=O)/C=C/c1c[nH]c(=O)[nH]c1=O | 649 µM |  |  | 324 µM | 444 µM | 756 µM | 585 µM | 790 µM |  | 771 µM | 508 µM | 781 µM | 718 µM | 151 µM | 893 µM | 341 µM |  |
| C/C(=C1/N=C(c2cc([N+](=O)[O-])ccc2Cl)N(C2=CC=C(Cl)CC2)C1=O)c1cc2ccccc2oc1=O | > 100 µM | > 100 µM |  |  | > 100 µM | > 100 µM | > 100 µM | > 100 µM | > 100 µM | > 100 µM | > 100 µM |  |  |  |  |  | > 100 µM |
